Consider five compounds from US12723063B2, “GIPR-agonist compounds” (Eli Lilly and Company, priority 2019, dated 2026).

Series [1] can be described thus: Pharmacokinetics in male Sprague Dawley rats, single subcutaneous administration. The series is classed as in vivo, Sprague Dawley rat. The following applies: 100 nmol/kg single SC, mean n = 3 (example 3 n = 1); for CL/F / Tmax / half-life: rat, plasma. As to the method:
The pharmacokinetics of select Examples are evaluated following a single subcutaneous (SC) administration of 100 nmol/kg to male Sprague Dawley rats. Blood samples are collected over 168 hours following SC administration. Pharmacokinetic parameters are calculated using individual plasma concentrations. A qualified LC/MS method that measures the intact mass of the Example is used to determine plasma (K3 EDTA) concentrations. Each peptide and an analog as an internal standard are extracted from 100% rat plasma using a protein precipitation method. Instruments are combined for LC/MS detection. Mean pharmacokinetic parameters for the Examples are shown in […]

Series [2] deals with CD4+ T cells (CD8+ T cell-depleted PBMCs). Kind of series: CD4+ T cell proliferation assay (immunogenicity assessment). The series is classed as cell-based, human. The following applies: 0.33 μM, 7 days, 10 healthy donors; positive response CDI>2.5. As to the method: Protein therapeutics that induce less than 30% positive response in the CD4+ T cell proliferation assay are associated with a low risk of immunogenicity. Briefly, to assess the propensity for a clinical immunogenic response to the compounds of Examples 1, 2, 3, 5, and 6, CD8+ T cell-depleted peripheral blood mononuclear cells (PBMCs) are prepared and labeled with carboxyfluorescein diacetate succinimidyl ester (CFSE; Invitrogen) from a cohort of 10 healthy donors with diverse human leukocyte antigen (HLA) class II haplotypes. Each donor is tested in triplicate with 2.0 mL media control, keyhole limpet hemocyanin (KLH: 0.33 μM), and the compounds of Examples 1, 2, 3, 5, and 6 (0.33 μM). Cultures are incubated for 7 days at 37° C. with 5% CO2. On day 7, samples are analyzed by flow cytometry using a BD LSR II Fortessa (Becton Dickinson; Franklin Lakes, NJ), equipped with a high throughput sampler (HTS). Data is analyzed using FlowJo® Software (FlowJo, LLC/TreeStar; Ashland, OR).
• Cell Division Index (“CDI”): proportion of divided CD4+ T cells to the total number of CD4+ T cells in stimulated versus unstimulated samples.

In a further series the test system is insulin secretion. Kind of series: In vivo effect on insulin secretion (ivGTT) in male Wistar rats. Details: species or system Wistar rat. As to the method: Male Wistar rats with femoral artery and femoral vein canulas (Envigo, Indianapolis, IN) (280-320 grams) are single-housed in polycarbonate cages with filter tops. Rats maintained on a 12:12 h light-dark cycle (lights on at 6:00 A.M.) at 21° C. and receive food and deionized water ad libitum. Rats are randomized by body weight and dosed 1.5 mL/kg subcutaneously (s.c.) at doses of 0.3, 1.0, 3, 10, 30, and 100 nmol/kg 16 hours prior to glucose administration then fasted. Animals are weighed and anesthetized with sodium pentobarbital dosed intraperitoneally (i.p.) (65 mg/kg, 30 mg/mL). At time 0, a blood sample is collected into EDTA tubes after which glucose is administered intravenously (i.v.) ([…], 5 mL/kg). Blood samples are collected for glucose and insulin levels at 2, 4, 6, 10, 20 and 30 min post-intravenous administration of glucose. Plasma glucose levels are determined using a clinical chemistry analyzer. Plasma insulin is determined using an electrochemiluminescence assay (Meso Scale, Gaithersburg, MD). […] Results are presented (SEM)(N).

Usually CL/F stands for clearance divided by bioavailability, as obtained after extravascular dosing. One may read the Tmax as the time from dosing to the highest level. Usually half-life stands for the time in which the quantity being followed falls by half. Low readings indicate rapid decline, high ones slow decline. With `CC[C@H](C)[C@H](NC(=O)[C@H](CO)NC(=O)[C@H](Cc1ccc(O)cc1)NC(=O)[C@H](CC(=O)O)NC(=O)[C@H](CO)NC(=O)[C@@H](NC(=O)[C@H](Cc1ccccc1)NC(=O)[C@@H](NC(=O)CNC(=O)[C@H](CCC(=O)O)NC(=O)[C@@H](C)NC(=O)[C@@H](N)Cc1ccc(O)cc1)[C@@H](C)O)[C@@H](C)CC)C(=O)N[C@@H](CC(C)C)C(=O)N[C@@H](CC(C)C)C(=O)N[C@@H](CC(=O)O)C(=O)N[C@@H](CCCCN)C(=O)N[C@@H](CCCCNC(=O)COCCOCCNC(=O)COCCOCCNC(=O)CC[C@H](NC(=O)CCCCCCCCCCCCCCCCCCC(=O)O)C(=O)O)C(=O)N[C@@H](C)C(=O)N[C@@H](CCC(N)=O)C(=O)NC(C)(C)C(=O)N[C@@H](CC(=O)O)C(=O)N[C@@H](Cc1ccccc1)C(=O)N[C@H](C(=O)N[C@@H](CC(N)=O)C(=O)N[C@@H](Cc1c[nH]c2ccccc12)C(=O)N[C@@H](CC(C)C)C(=O)N[C@@H](CC(C)C)C(=O)N[C@@H](C)C(=O)N[C@@H](CCC(N)=O)C(=O)NCC(=O)N1CCC[C@H]1C(=O)N[C@@H](CO)C(=O)N[C@@H](CO)C(=O)NCC(=O)N[C@@H](C)C(=O)N1CCC[C@H]1C(=O)N1CCC[C@H]1C(=O)N1CCC[C@H]1C(=O)N[C@@H](CO)C(N)=O)C(C)C` [Example 1], in series [1], the AUCInf/Dose is 280 hr*kg*nmol/L/nmol, the Cmax/Dose was determined as 3.62 kg*nmol/L/nmol, the CL/F is 3.57 mL/h/kg and the Tmax stood at 24 h. In series [1], this compound gave a half-life of 37.4 h. In addition, in series [2], the “% Donor Response (n = 10)” value was found to be 0%.

In the case of `CC[C@H](C)[C@H](NC(=O)[C@H](CO)NC(=O)[C@H](Cc1ccc(O)cc1)NC(=O)[C@H](CC(=O)O)NC(=O)[C@H](CO)NC(=O)[C@@H](NC(=O)[C@H](Cc1ccccc1)NC(=O)[C@@H](NC(=O)CNC(=O)[C@H](CCC(=O)O)NC(=O)[C@@H](C)NC(=O)[C@@H](N)Cc1ccc(O)cc1)[C@@H](C)O)[C@@H](C)CC)C(=O)N[C@@H](CC(C)C)C(=O)N[C@@H](CC(C)C)C(=O)N[C@@H](CC(=O)O)C(=O)N[C@@H](CCCCN)C(=O)N[C@@H](CCCCNC(=O)COCCOCCNC(=O)COCCOCCNC(=O)CC[C@H](NC(=O)CCCCCCCCCCCCCCCCC(=O)O)C(=O)O)C(=O)N[C@@H](C)C(=O)N[C@@H](CCC(N)=O)C(=O)NC(C)(C)C(=O)N[C@@H](CC(=O)O)C(=O)N[C@@H](Cc1ccccc1)C(=O)N[C@H](C(=O)N[C@@H](CC(N)=O)C(=O)N[C@@H](Cc1c[nH]c2ccccc12)C(=O)N[C@@H](CC(C)C)C(=O)N[C@@H](CC(C)C)C(=O)N[C@@H](C)C(=O)N[C@@H](CCC(N)=O)C(=O)NCC(=O)N1CCC[C@H]1C(=O)N[C@@H](CO)C(=O)N[C@@H](CO)C(=O)NCC(=O)N[C@@H](C)C(=O)N1CCC[C@H]1C(=O)N1CCC[C@H]1C(=O)N1CCC[C@H]1C(=O)N[C@@H](CO)C(N)=O)C(C)C` [Example 2], in series [1], the AUCInf/Dose amounted to 304 hr*kg*nmol/L/nmol, the Cmax/Dose was determined as 5.47 kg*nmol/L/nmol, the CL/F was 3.3 mL/h/kg and the Tmax was 12 h. The compound further gave a half-life in series [1] of 26.9 h. Moreover, the “% Donor Response (n = 10)” value in series [2] is listed as 10%.

On to `CC[C@H](C)[C@H](NC(=O)[C@H](Cc1ccccc1)NC(=O)[C@@H](NC(=O)CNC(=O)[C@H](CCC(=O)O)NC(=O)C(C)(C)NC(=O)[C@@H](N)Cc1ccc(O)cc1)[C@@H](C)O)C(=O)N[C@@H](CO)C(=O)N[C@@H](CC(=O)O)C(=O)N[C@@H](Cc1ccc(O)cc1)C(=O)N[C@@H](CO)C(=O)N[C@H](C(=O)N[C@@](C)(CC(C)C)C(=O)N[C@@H](CC(C)C)C(=O)N[C@@H](CC(=O)O)C(=O)N[C@@H](CCCCN)C(=O)N[C@@H](CCCCNC(=O)COCCOCCNC(=O)COCCOCCNC(=O)CC[C@H](NC(=O)CCCCCCCCCCCCCCCCCCC(=O)O)C(=O)O)C(=O)N[C@@H](Cc1c[nH]cn1)C(=O)N[C@@H](CCC(N)=O)C(=O)NC(C)(C)C(=O)N[C@@H](CC(=O)O)C(=O)N[C@@H](Cc1ccccc1)C(=O)N[C@H](C(=O)N[C@@H](CCC(=O)O)C(=O)N[C@@H](Cc1ccncc1)C(=O)N[C@@H](CC(C)C)C(=O)N[C@@H](CC(C)C)C(=O)N[C@@H](CCC(=O)O)C(=O)N[C@@H](C)C(=O)NCC(=O)N1CCC[C@H]1C(=O)N[C@@H](CO)C(=O)N[C@@H](CO)C(=O)NCC(=O)N[C@@H](C)C(=O)N1CCC[C@H]1C(=O)N1CCC[C@H]1C(=O)N1CCC[C@H]1C(=O)N[C@@H](CO)C(N)=O)C(C)C)[C@@H](C)CC` [Example 3], for which, in series [1], the AUCInf/Dose worked out at 130 hr*kg*nmol/L/nmol, the Cmax/Dose is reported as 3.03 kg*nmol/L/nmol, the CL/F is 7.67 mL/h/kg and the Tmax came out at 12 h. For the same compound, in series [1], the half-life was 24.9 h. Moreover, the “% Donor Response (n = 10)” value in series [2] amounted to 0%.

`CC[C@H](C)[C@H](NC(=O)[C@H](CCCCN)NC(=O)[C@H](CC(=O)O)NC(=O)[C@H](CC(C)C)NC(=O)[C@](C)(CC(C)C)NC(=O)[C@@H](NC(=O)[C@H](CO)NC(=O)[C@H](Cc1ccc(O)cc1)NC(=O)[C@H](CC(=O)O)NC(=O)[C@H](CO)NC(=O)[C@@H](NC(=O)[C@H](Cc1ccccc1)NC(=O)[C@@H](NC(=O)CNC(=O)[C@H](CCC(=O)O)NC(=O)C(C)(C)NC(=O)[C@@H](N)Cc1ccc(O)cc1)[C@@H](C)O)[C@@H](C)CC)[C@@H](C)CC)C(=O)N[C@@H](Cc1c[nH]cn1)C(=O)N[C@@H](CCC(N)=O)C(=O)NC(C)(C)C(=O)N[C@@H](CC(=O)O)C(=O)N[C@@H](Cc1ccccc1)C(=O)N[C@H](C(=O)N[C@@H](CCC(=O)O)C(=O)N[C@@H](Cc1ccc(O)cc1)C(=O)N[C@@H](CCCCNC(=O)COCCOCCNC(=O)COCCOCCNC(=O)CC[C@H](NC(=O)CCCCCCCCCCCCCCCCCCC(=O)O)C(=O)O)C(=O)N[C@@H](CC(C)C)C(=O)N[C@@H](CCC(=O)O)C(=O)NCC(=O)NCC(=O)N1CCC[C@H]1C(=O)N[C@@H](CO)C(=O)N[C@@H](CO)C(=O)NCC(=O)N[C@@H](C)C(=O)N1CCC[C@H]1C(=O)N1CCC[C@H]1C(=O)N1CCC[C@H]1C(=O)N[C@@H](CO)C(N)=O)C(C)C` [Example 5]: the AUCInf/Dose in series [1] was found to be 239 hr*kg*nmol/L/nmol. The compound also displayed a Cmax/Dose in series [1] of 4.61 kg*nmol/L/nmol. In series [1], this compound showed a CL/F of 4.2 mL/h/kg. In series [1], the Tmax was 24 h. In series [1], this compound had a half-life of 27.1 h. Moreover, the “insulin secretion during intravenous glucose tolerance test” value is 36.2 in the series with insulin secretion (0.3 nmol/kg s.c. 16 hours prior to glucose); 45.3 in the series on insulin secretion (1.0 nmol/kg s.c. 16 hours prior to glucose); 80.6 in the series with insulin secretion (3.0 nmol/kg s.c. 16 hours prior to glucose); 122.0 in the series with insulin secretion (10 nmol/kg s.c. 16 hours prior to glucose); 144 with insulin secretion (30 nmol/kg s.c. 16 hours prior to glucose); 212.7 with insulin secretion (100 nmol/kg s.c. 16 hours prior to glucose). Also, in the series on insulin secretion (s.c., n = 1), the “Insulin secretion (ivGTT) ED50” value is recorded as 18.4 (n = 1) nmol/kg. Moreover, in series [2], the “% Donor Response (n = 10)” value worked out at 0%.

In series [1], `CC[C@H](C)[C@H](NC(=O)[C@H](CCCN)NC(=O)[C@H](CC(=O)O)NC(=O)[C@H](CC(C)C)NC(=O)[C@](C)(CC(C)C)NC(=O)[C@@H](NC(=O)[C@H](CO)NC(=O)[C@H](Cc1ccc(O)cc1)NC(=O)[C@H](CC(=O)O)NC(=O)[C@H](CO)NC(=O)[C@@H](NC(=O)[C@H](Cc1ccccc1)NC(=O)[C@@H](NC(=O)CNC(=O)[C@H](CCC(=O)O)NC(=O)C(C)(C)NC(=O)[C@@H](N)Cc1ccc(O)cc1)[C@@H](C)O)[C@@H](C)CC)[C@@H](C)CC)C(=O)N[C@@H](Cc1c[nH]cn1)C(=O)N[C@@H](CCC(N)=O)C(=O)NC(C)(C)C(=O)N[C@@H](CC(=O)O)C(=O)N[C@@H](Cc1ccccc1)C(=O)N[C@H](C(=O)N[C@@H](CCC(=O)O)C(=O)N[C@@H](Cc1ccc(O)cc1)C(=O)N[C@@H](CCCCNC(=O)COCCOCCNC(=O)COCCOCCNC(=O)CC[C@H](NC(=O)CCCCCCCCCCCCCCCCCCC(=O)O)C(=O)O)C(=O)N[C@@H](CC(C)C)C(=O)N[C@@H](CCC(=O)O)C(=O)NCC(=O)NCC(=O)N1CCC[C@H]1C(=O)N[C@@H](CO)C(=O)N[C@@H](CO)C(=O)NCC(=O)N[C@@H](C)C(=O)N1CCC[C@H]1C(=O)N1CCC[C@H]1C(=O)N1CCC[C@H]1C(=O)N[C@@H](CO)C(N)=O)C(C)C` [Example 6] gave an AUCInf/Dose of 271 hr*kg*nmol/L/nmol, a Cmax/Dose of 4.07 kg*nmol/L/nmol, a CL/F of 3.69 mL/h/kg and a half-life of 34.8 h. For the same compound, the “% Donor Response (n = 10)” value in series [2] worked out at 0%.
